Assay results reported in patent US10774083B2, “Heterocyclic amide compound” (TAKEDA PHARMACEUTICAL COMPANY LIMITED, priority 2016, dated 2020).

Tested on: human malignant melanoma cell line SKMEL-2
Experiment: antitumor action on mice transplanted with human malignant melanoma cell line SKMEL-2
Format: in vivo, mouse
Conditions: once per day, 14 days
Experimental: An antitumor action of the compound of the present invention on mice transplanted with human malignant melanoma cell line SKMEL-2 and human fibrosarcoma cell line HT-1080 was evaluated by the following method.
Human malignant melanoma cell line SKMEL-2 was subcutaneously transplanted by injection to 7-week-old BALB/cA Jcl-nu/nu female mice (CLEA Japan, Inc.) at 1.0×10^7 cells (G1). At the time point when the tumor volume reached around 800 mm^3 after transplantation, the cells were subcultured and transplanted into 7-week-old BALB/cA Jcl-nu/nu female mouse (CLEA Japan, Inc.) by using trocar (G2). […] At 13 days from transplantation, the tumor diameter of the engrafted tumor was measured and the tumor volume was calculated by the following formula.
Individuals having a tumor volume of 100 to 300 mm^3 were selected for SKMEL-2, and individuals having a tumor volume of 200 to 400 mm^3 were selected for HT-1080, and 4 or 5 mice per group were used for the experiment. […] The tumor diameter was measured one day before the start of administration and one day after completion of administration and the tumor volume was calculated.
The tumor proliferation rate (T/C (%)) of the test compound administration group in comparison with the control administration group was calculated by the following formula. […]

Cc1cc(N2CC[C@@](C#N)(C3CC3)C2=O)cc(C(=O)NCc2cc(F)cc(-c3cnn(C)c3)c2)n1 [Example 159, 4-((3S)-3-cyano-3-cyclopropyl-2-oxopyrrolidin-1-yl)-N-(3-fluoro-5-(1-methyl-1H-pyrazol-4-yl)benzyl)-6-methylpyridine-2-carboxamide]
T/C (%) tumor proliferation rate (SKMEL-2, 5 mg/kg orally): 64%
T/C (%) tumor proliferation rate (SKMEL-2, 10 mg/kg orally): 7.7%
